This is an account of results in patent publication US8435978B2, “Substituted sulfonamide compounds” (Gruenenthal GmbH, priority 2006, dated 2013).

Each structure is given as a SMILES string.

The target of one experiment is T1, human B1R receptor (Homo sapiens, UniProt P46663).
T1 construct: host or cells: CHO K1 cells (Chinese hamster ovary), stably transfected
T1 sequence (P46663 1-353): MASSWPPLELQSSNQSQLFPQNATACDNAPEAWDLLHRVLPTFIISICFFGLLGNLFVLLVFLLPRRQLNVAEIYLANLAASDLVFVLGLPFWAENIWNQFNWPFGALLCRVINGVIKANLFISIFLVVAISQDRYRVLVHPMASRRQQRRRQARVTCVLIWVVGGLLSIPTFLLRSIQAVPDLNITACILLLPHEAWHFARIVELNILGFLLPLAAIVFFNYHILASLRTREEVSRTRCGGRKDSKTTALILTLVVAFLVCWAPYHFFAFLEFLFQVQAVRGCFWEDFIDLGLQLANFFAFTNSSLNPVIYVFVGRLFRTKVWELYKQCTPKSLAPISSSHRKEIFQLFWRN
Kind of experiment: Functional study on the bradykinin receptor 1 (B1R), FLIPR Ca2+ assay, hB1R cells. Particulars: CHO-K1, test substance 10 μM, agonist Lys-Des-Arg9-bradykinin 0.5 nM, % inhibition compared with the maximum achievable inhibition, read-out: B1R Antagonism, human [10 μM] % Inhibition. The format is cell-based. The method in brief:
(§1)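 Readout: peak Fluo-4 Ca2+ fluorescence, FLIPR. Stable CHO K1 hB1R or rB1R cells; cpd 10 μM, 10 min preincubation, then agonist (hB1R: Lys-Des-Arg9-BK 0.5 nM; rB1R: Des-Arg9-BK 100 nM). Value = % inhibition relative to maximal achievable inhibition.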

For the next experiment, the target named is T2, B1R receptor of the rat (Rattus norvegicus, UniProt P97583).
T2 construct: host or cells: CHO K1 cells (Chinese hamster ovary), stably transfected
T2 sequence (P97583 1-337): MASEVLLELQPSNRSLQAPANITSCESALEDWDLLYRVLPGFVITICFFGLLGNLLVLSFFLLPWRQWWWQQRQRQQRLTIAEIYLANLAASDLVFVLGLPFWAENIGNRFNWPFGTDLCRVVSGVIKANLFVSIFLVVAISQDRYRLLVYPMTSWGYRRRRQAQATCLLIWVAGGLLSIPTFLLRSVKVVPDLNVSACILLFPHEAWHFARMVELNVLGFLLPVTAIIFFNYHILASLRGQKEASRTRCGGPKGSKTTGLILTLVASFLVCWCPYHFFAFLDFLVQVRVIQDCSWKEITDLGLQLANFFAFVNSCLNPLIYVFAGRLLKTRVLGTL
Kind of experiment: Functional study on the bradykinin receptor 1 (B1R), FLIPR Ca2+ assay, rB1R cells. The format is cell-based. Particulars: CHO-K1, test substance 10 μM, agonist Des-Arg9-bradykinin 100 nM, % inhibition compared with the maximum achievable inhibition, read-out: B1R Antagonism, rat [10 μM] % Inhibition. The method in brief: as §1

Consider `O=C(COCC1Cc2ccccc2CN1S(=O)(=O)c1ccc(Cl)cc1Cl)Nc1cccc(N2CCOCC2)c1` (centres unmarked) [Example 265, 2-((2-(2,4-dichlorophenylsulfonyl)-1,2,3,4-tetrahydroisoquinolin-3-yl)methoxy)-N-(3-morpholinophenyl)acetamide], for which the inhibition at 10 µM at human B1R receptor came out at 100%; at B1R receptor of the rat it was 51.3%.

Consider `O=C(COCC1CCCCN1S(=O)(=O)c1ccc(Cl)c(Cl)c1)N1CCOC(CN2CCCCC2)C1` (centres unmarked) [Example 266, 2-((1-(3,4-dichlorophenylsulfonyl)piperidin-2-yl)methoxy)-1-(2-(piperidin-1-ylmethyl)morpholino)ethanone], for which the inhibition at 10 µM on human B1R receptor is 102%; on B1R receptor of the rat it was 2.12%.

With `COc1cc(C)c(S(=O)(=O)N2CCCC2COCC(=O)N2CCC(N3CCN(C)CC3)CC2)c(C)c1` (centres unmarked) [Example 267, 2-((1-(4-methoxy-2,6-dimethylphenylsulfonyl)pyrrolidin-2-yl)methoxy)-1-(4-(4-methylpiperazin-1-yl)piperidin-1-yl)ethanone], the inhibition at 10 µM at human B1R receptor stood at 104%; on B1R receptor of the rat, 95.2%.

As for `COc1cc(C)c(S(=O)(=O)N2CCCC2COCC(=O)N2CCC(CCN3CCCCC3)CC2)c(C)c1` (centres unmarked) [Example 268, 2-((1-(4-methoxy-2,6-dimethylphenylsulfonyl)pyrrolidin-2-yl)methoxy)-1-(4-(2-(piperidin-1-yl)ethyl)piperidin-1-yl)ethanone], the inhibition at 10 µM on human B1R receptor amounted to 104%; at B1R receptor of the rat, 102%.

For the compound `COc1cc(C)c(S(=O)(=O)N2CCCC2COCC(=O)N2CCN(CCn3c(C)ccc3C)CC2)c(C)c1` (centres unmarked) [Example 269, 1-(4-(2-(2,5-dimethyl-1H-pyrrol-1-yl)ethyl)piperazin-1-yl)-2-((1-(4-methoxy-2,6-dimethylphenylsulfonyl)pyrrolidin-2-yl)methoxy)ethanone], the inhibition at 10 µM at human B1R receptor came out at 104%; on B1R receptor of the rat it was 99%.

For `COc1cc(C)c(S(=O)(=O)N2CCCC2COCC(=O)N2CCN(CCN(C(C)C)C(C)C)CC2)c(C)c1` (centres unmarked) [Example 270, 1-(4-(2-(diisopropylamino)ethyl)piperazin-1-yl)-2-((1-(4-methoxy-2,6-dimethylphenylsulfonyl)pyrrolidin-2-yl)methoxy)ethanone], the inhibition at 10 µM at human B1R receptor is 104%; on B1R receptor of the rat, 93.4%.

In the case of `COc1cc(C)c(S(=O)(=O)N2CCCC2COCC(=O)N2CCCC2c2ccccn2)c(C)c1` (centres unmarked) [Example 271, 2-((1-(4-methoxy-2,6-dimethylphenylsulfonyl)pyrrolidin-2-yl)methoxy)-1-(2-(pyridin-2-yl)pyrrolidin-1-yl)ethanone], the values for the inhibition at 10 µM on human B1R receptor and on B1R receptor of the rat were 59.1% and 85.9%, respectively.

Take `COc1cc(C)c(S(=O)(=O)N2CCCC2COCC(=O)N2CCC(c3cccnc3)C2)c(C)c1` (centres unmarked) [Example 272, 2-((1-(4-methoxy-2,6-dimethylphenylsulfonyl)pyrrolidin-2-yl)methoxy)-1-(3-(pyridin-3-yl)pyrrolidin-1-yl)ethanone]: the figures for the inhibition at 10 µM at human B1R receptor and on B1R receptor of the rat were 97.1% and 84.6%, respectively.

Take `COc1cc(C)c(S(=O)(=O)N2CCCC2COCC(=O)N2CCC(c3ccncc3)C2)c(C)c1` (centres unmarked) [Example 273, 2-((1-(4-methoxy-2,6-dimethylphenylsulfonyl)pyrrolidin-2-yl)methoxy)-1-(3-(pyridin-4-yl)pyrrolidin-1-yl)ethanone]: the inhibition at 10 µM at human B1R receptor worked out at 96%; on B1R receptor of the rat, 84.9%.

Take `COc1cc(C)c(S(=O)(=O)N2CCCC2COCC(=O)N2CCN(c3ccncc3)CC2)c(C)c1` (centres unmarked) [Example 274, 2-((1-(4-methoxy-2,6-dimethylphenylsulfonyl)pyrrolidin-2-yl)methoxy)-1-(4-(pyridin-4-yl)piperazin-1-yl)ethanone]: the inhibition at 10 µM was 104% at human B1R receptor and 98.1% at B1R receptor of the rat.

In the case of `COc1cc(C)c(S(=O)(=O)N2Cc3ccccc3CC2COCC(=O)N2CCC(N3CCN(C)CC3)CC2)c(C)c1C` (centres unmarked) [Example 275, 2-((2-(4-methoxy-2,3,6-trimethylphenylsulfonyl)-1,2,3,4-tetrahydroisoquinolin-3-yl)methoxy)-1-(4-(4-methylpiperazin-1-yl)piperidin-1-yl)ethanone], the inhibition at 10 µM at human B1R receptor was found to be 102%; on B1R receptor of the rat it was 93.1%.

Regarding `COc1cc(C)c(S(=O)(=O)N2Cc3ccccc3CC2COCC(=O)N2CCC(CCN3CCCCC3)CC2)c(C)c1C` (centres unmarked) [Example 276, 2-((2-(4-methoxy-2,3,6-trimethylphenylsulfonyl)-1,2,3,4-tetrahydroisoquinolin-3-yl)methoxy)-1-(4-(2-(piperidin-1-yl)ethyl)piperidin-1-yl)ethanone], the inhibition at 10 µM at human B1R receptor is 98.9%; at B1R receptor of the rat it was 94.2%.

As to `COc1cc(C)c(S(=O)(=O)N2Cc3ccccc3CC2COCC(=O)N2CCCCC2Cc2cccc(C)n2)c(C)c1C` (centres unmarked) [Example 277, 2-((2-(4-methoxy-2,3,6-trimethylphenylsulfonyl)-1,2,3,4-tetrahydroisoquinolin-3-yl)methoxy)-1-(2-((6-methylpyridin-2-yl)methyl)piperidin-1-yl)ethanone], the inhibition at 10 µM on human B1R receptor is 85.5%; on B1R receptor of the rat, 81.6%.

Regarding `CN1CCN(C2CCN(C(=O)COCC3CCCCN3S(=O)(=O)c3c(Cl)cccc3Cl)CC2)CC1` (centres unmarked) [Example 278, 2-((1-(2,6-dichlorophenylsulfonyl)piperidin-2-yl)methoxy)-1-(4-(4-methylpiperazin-1-yl)piperidin-1-yl)ethanone], the inhibition at 10 µM at human B1R receptor turned out to be 104%; at B1R receptor of the rat, 96.9%.

With `O=C(COCC1CCCCN1S(=O)(=O)c1c(Cl)cccc1Cl)N1CCC(CCN2CCCCC2)CC1` (centres unmarked) [Example 279, 2-((1-(2,6-dichlorophenylsulfonyl)piperidin-2-yl)methoxy)-1-(4-(2-(piperidin-1-yl)ethyl)piperidin-1-yl)ethanone], the inhibition at 10 µM was 104% at human B1R receptor and 95.4% on B1R receptor of the rat.

As to `Cc1ccc(C)n1CCN1CCN(C(=O)COCC2CCCCN2S(=O)(=O)c2c(Cl)cccc2Cl)CC1` (centres unmarked) [Example 280, 2-((1-(2,6-dichlorophenylsulfonyl)piperidin-2-yl)methoxy)-1-(4-(2-(2,5-dimethyl-1H-pyrrol-1-yl)ethyl)piperazin-1-yl)ethanone], the inhibition at 10 µM at human B1R receptor turned out to be 104%; at B1R receptor of the rat it was 92%.

In the case of `CC(C)N(CCN1CCN(C(=O)COCC2CCCCN2S(=O)(=O)c2c(Cl)cccc2Cl)CC1)C(C)C` (centres unmarked) [Example 281, 2-((1-(2,6-dichlorophenylsulfonyl)piperidin-2-yl)methoxy)-1-(4-(2-(diisopropylamino)ethyl)piperazin-1-yl)ethanone], the values for the inhibition at 10 µM at human B1R receptor and at B1R receptor of the rat were 104% and 92.4%, respectively.

As to `O=C(COCC1CCCCN1S(=O)(=O)c1c(Cl)cccc1Cl)N1CCC(c2ccncc2)C1` (centres unmarked) [Example 282, 2-((1-(2,6-dichlorophenylsulfonyl)piperidin-2-yl)methoxy)-1-(3-(pyridin-4-yl)pyrrolidin-1-yl)ethanone], the inhibition at 10 µM worked out at 103% at human B1R receptor and 86% at B1R receptor of the rat.

Consider `O=C(COCC1CCCCN1S(=O)(=O)c1c(Cl)cccc1Cl)N1CCN(c2ccncc2)CC1` (centres unmarked) [Example 283, 2-((1-(2,6-dichlorophenylsulfonyl)piperidin-2-yl)methoxy)-1-(4-(pyridin-4-yl)piperazin-1-yl)ethanone], for which the inhibition at 10 µM worked out at 103% at human B1R receptor and 92.9% on B1R receptor of the rat.

In the case of `Cc1cccc(CC2CCCCN2C(=O)COCC2CCCCN2S(=O)(=O)c2c(Cl)cccc2Cl)n1` (centres unmarked) [Example 284, 2-((1-(2,6-dichlorophenylsulfonyl)piperidin-2-yl)methoxy)-1-(2-((6-methylpyridin-2-yl)methyl)piperidin-1-yl)ethanone], the inhibition at 10 µM at human B1R receptor stood at 103%; on B1R receptor of the rat, 93.5%.

For `CN1CCN(C2CCN(C(=O)COCC3CCCN3S(=O)(=O)c3c(Cl)cccc3Cl)CC2)CC1` (centres unmarked) [Example 285, 2-((1-(2,6-dichlorophenylsulfonyl)pyrrolidin-2-yl)methoxy)-1-(4-(4-methylpiperazin-1-yl)piperidin-1-yl)ethanone], the inhibition at 10 µM on human B1R receptor stood at 104%; on B1R receptor of the rat, 91%.

On to `O=C(COCC1CCCN1S(=O)(=O)c1c(Cl)cccc1Cl)N1CCC(CCN2CCCCC2)CC1` (centres unmarked) [Example 286, 2-((1-(2,6-dichlorophenylsulfonyl)pyrrolidin-2-yl)methoxy)-1-(4-(2-(piperidin-1-yl)ethyl)piperidin-1-yl)ethanone], for which the inhibition at 10 µM turned out to be 104% at human B1R receptor and 97.9% on B1R receptor of the rat.
